Consider 16 molecules from patent US20260200901A1, “NOVEL COMPOUNDS AS MODULATORS OF NLRP3 INHIBITION” (Hoffmann-La Roche Inc., priority 2022, published 2026).

Data set [1] deals with T1, NLRP3 (Homo sapiens, UniProt Q96P20). Briefly: Human whole blood IL-1β release assay. Format: cell-based. On the set-up: Human whole blood in Li-heparin tubes was obtained from healthy donors; from tissue; host or cells: human whole blood from healthy donors. To be noted: LPS 1 μg/ml, nigericin 10 μM, IL-1β AlphaLisa. The source says: For systemic delivery, the ability to inhibit NLRP3 when the compounds are present within the bloodstream is of great importance.
For orientation: Alpha assays give light when donor and acceptor beads are brought close together.

The target of data set [2] is T1, NLRP3. Briefly: THP-1 cells pyroptosis assay.
Experimental: The cells were routinely passaged and grown to confluency (~10^6 cells/ml). On the day of the experiment, THP-1 cells were harvested and resuspended into RPMI medium (without FBS). […] To this diluted cell solution was added LPS (Sigma #L4524) to give a 1 μg/ml Final Assay Concentration (FAC). 40 μl of the final preparation was aliquoted into each well of a 96-well plate. The plate thus prepared was used for compound screening.
For data set [3], the target named is T2, hERG cardiac potassium channel (Homo sapiens, UniProt Q12809).
T2 construct: host or cells: CHO crelox hERG cell line (Chinese hamster)
Briefly: hERG screening assay (automated patch clamp, CHO crelox hERG cells). The format is cell-based. To be noted: whole-cell patch clamp, 35-37° C. The source says:
In the drug development process of small molecules, one of the most frequent adverse side effects, leading to the failure of drugs, is the cardiac arrhythmias. […] Having no or low inhibition of the hERG cardiac potassium channel is therefore considered as beneficial.
Ready-to-use frozen instant CHO-hERG cells were cryopreserved at Evotec (Germany) and used directly in the experiments.
The extracellular solution contains (in mM): NaCl 150; KCl 4; CaCl2 1; MgCl2 1; HEPES 10; pH 7.2-7.4 with NaOH, osmolarity 290-330 mOsm. The internal solution contains (in mM): KCl, 10; KF, 100; NaCl, 10; HEPES, 10; EGTA, 20; pH=7.0-7.4 with KOH, osmolarity 260-300 mOsm.
The effects of a compound on hERG K+-currents parameters will be evaluated at 2 concentrations in at least 4 cells.
K+ currents are measured with the patch-voltage-clamp technique in the whole-cell configuration at 35-37° C.
The amplitudes of IKhERG were recorded in each concentration of drug and they were compared to the vehicle control values (taken as 100%) to define fractional blocks. The concentration-response data were fitted with the following relationship:
Concentration-response curves were fitted by non-linear regression analysis using EworkBook suite (ID Business Solutions Ltd, UK). Data fit was done with the 4 Parameter Logistic Model (fit=(A+(B/(1+((x/C)^D)))), where A=0 and B=100).

For the next data set, the target named is T3, human P-gp (Homo sapiens, UniProt P08183).
T3 construct: expressed in transfected cells; host or cells: LLC-PK1 cells (porcine kidney epithelial cells)
Briefly: Transcellular human P-gp assay (transfected LLC-PK1 cells). Format: in vitro ADME. To be noted: LLC-PK1 cells over-expressing human P-gp. The source says:
The general assay uses transfected LLC-PK1 cells (porcine kidney epithelial cells) over-expressing human or mouse P-gp, cultured on 96 well semi-permeable filter membrane plates, where they form a polarized monolayer with tight junctions, and act as a barrier between the apical and basolateral compartment.
P-gp is expressed in the apical-facing membrane of the monolayer.

Each structure is given as a SMILES string. Structures can show the parent of a compound that is named as a salt.

T1 sequence (Q96P20 whole entry): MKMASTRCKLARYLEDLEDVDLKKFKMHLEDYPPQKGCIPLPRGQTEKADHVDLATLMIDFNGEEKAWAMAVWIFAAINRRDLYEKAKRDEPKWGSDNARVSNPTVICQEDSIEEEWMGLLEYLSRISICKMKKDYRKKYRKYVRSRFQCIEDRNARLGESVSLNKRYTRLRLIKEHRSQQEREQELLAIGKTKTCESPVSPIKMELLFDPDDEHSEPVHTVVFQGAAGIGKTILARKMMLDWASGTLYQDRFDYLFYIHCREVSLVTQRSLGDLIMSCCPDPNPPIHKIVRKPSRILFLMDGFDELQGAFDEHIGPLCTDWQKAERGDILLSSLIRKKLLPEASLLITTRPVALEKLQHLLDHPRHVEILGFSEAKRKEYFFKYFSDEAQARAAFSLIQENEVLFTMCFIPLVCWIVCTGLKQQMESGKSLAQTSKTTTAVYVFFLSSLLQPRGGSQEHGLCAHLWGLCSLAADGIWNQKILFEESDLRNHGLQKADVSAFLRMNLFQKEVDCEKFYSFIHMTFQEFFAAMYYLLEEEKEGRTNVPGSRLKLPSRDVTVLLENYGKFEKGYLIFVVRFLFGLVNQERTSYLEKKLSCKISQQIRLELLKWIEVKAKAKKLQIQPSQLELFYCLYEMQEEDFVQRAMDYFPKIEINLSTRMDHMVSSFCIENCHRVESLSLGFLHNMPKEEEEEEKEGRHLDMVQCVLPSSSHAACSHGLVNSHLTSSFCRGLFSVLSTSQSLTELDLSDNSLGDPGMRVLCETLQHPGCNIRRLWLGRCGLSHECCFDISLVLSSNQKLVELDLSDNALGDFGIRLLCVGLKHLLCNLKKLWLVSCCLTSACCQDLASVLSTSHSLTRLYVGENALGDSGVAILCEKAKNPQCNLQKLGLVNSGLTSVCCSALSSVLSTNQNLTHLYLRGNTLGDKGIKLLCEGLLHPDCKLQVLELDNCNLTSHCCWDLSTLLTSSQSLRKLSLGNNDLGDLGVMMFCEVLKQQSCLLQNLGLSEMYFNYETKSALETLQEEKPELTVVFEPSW
T3 sequence (P08183 whole entry): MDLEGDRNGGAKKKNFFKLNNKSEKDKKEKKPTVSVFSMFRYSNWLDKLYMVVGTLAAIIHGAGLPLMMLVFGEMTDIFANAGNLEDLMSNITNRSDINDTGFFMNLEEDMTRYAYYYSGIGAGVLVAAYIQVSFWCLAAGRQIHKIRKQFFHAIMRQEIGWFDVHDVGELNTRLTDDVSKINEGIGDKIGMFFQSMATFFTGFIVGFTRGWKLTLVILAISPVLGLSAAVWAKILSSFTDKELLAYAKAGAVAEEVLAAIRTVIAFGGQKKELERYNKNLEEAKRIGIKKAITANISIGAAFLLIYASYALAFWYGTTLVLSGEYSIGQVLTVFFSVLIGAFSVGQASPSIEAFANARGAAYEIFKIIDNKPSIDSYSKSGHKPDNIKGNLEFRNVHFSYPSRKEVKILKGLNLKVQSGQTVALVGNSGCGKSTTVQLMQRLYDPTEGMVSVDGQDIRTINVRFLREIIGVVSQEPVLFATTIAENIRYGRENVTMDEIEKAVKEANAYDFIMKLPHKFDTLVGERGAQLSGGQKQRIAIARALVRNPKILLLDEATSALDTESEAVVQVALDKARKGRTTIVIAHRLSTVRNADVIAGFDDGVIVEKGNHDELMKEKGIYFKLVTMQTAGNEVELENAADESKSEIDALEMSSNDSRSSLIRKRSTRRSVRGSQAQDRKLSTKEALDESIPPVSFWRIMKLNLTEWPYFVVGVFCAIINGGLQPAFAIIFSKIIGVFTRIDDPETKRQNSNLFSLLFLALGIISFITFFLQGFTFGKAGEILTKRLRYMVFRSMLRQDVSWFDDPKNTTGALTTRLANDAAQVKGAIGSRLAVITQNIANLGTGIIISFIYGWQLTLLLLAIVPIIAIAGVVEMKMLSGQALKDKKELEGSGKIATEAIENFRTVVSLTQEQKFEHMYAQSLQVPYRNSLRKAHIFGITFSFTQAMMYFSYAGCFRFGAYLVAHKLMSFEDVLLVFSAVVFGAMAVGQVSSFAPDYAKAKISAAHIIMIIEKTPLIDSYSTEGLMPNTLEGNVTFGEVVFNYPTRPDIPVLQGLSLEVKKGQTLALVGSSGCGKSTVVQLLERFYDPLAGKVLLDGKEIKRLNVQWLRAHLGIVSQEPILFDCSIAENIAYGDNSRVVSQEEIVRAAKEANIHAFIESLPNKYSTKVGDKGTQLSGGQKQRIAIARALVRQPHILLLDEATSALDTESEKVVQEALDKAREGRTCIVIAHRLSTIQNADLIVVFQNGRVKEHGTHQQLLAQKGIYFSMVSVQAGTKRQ
T2 sequence (Q12809 whole entry): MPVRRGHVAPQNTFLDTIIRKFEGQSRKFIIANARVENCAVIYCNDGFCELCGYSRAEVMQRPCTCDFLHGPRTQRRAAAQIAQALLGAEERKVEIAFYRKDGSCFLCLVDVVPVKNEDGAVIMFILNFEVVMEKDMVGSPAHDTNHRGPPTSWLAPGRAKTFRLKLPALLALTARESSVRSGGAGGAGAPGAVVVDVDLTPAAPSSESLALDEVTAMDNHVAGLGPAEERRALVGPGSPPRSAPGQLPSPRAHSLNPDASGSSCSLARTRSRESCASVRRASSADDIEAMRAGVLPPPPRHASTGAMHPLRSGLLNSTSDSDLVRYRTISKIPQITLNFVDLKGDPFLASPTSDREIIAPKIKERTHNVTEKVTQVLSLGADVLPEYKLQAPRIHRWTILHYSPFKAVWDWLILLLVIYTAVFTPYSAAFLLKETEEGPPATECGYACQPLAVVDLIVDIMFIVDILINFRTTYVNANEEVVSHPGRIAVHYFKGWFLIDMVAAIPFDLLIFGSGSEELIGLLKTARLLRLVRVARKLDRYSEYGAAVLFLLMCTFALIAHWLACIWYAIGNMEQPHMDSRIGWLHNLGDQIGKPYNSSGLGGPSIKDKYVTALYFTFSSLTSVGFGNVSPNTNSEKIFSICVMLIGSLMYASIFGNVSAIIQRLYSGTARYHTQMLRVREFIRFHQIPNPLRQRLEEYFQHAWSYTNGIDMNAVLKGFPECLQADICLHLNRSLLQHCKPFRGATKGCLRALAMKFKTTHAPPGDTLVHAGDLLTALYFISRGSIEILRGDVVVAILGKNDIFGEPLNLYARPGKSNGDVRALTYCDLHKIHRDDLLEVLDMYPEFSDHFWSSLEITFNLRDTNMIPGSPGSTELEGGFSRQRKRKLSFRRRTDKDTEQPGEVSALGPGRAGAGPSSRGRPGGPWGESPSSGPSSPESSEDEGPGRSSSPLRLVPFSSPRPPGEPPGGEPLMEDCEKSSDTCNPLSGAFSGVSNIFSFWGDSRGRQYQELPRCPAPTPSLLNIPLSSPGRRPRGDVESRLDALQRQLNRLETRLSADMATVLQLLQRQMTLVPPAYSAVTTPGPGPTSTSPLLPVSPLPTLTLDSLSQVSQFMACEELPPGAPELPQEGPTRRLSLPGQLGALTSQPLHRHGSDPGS

Consider `Cc1nc(N[C@@H]2CCCN(CCCC(=O)N3CCC(O)C3)C2)nnc1-c1ccc2c(c1O)CCO2` (mixture of isomers) [Example 15, 1-(3-Hydroxypyrrolidin-1-yl)-4-[rac-(3R)-3-[[6-(4-hydroxy-2,3-dihydrobenzofuran-5-yl)-5-methyl-1,2,4-triazin-3-yl]amino]-1-piperidyl]butan-1-one; formic acid], for which the half-maximal inhibitory concentration (IC50) – broadly, the point on the concentration scale where inhibition reaches its midpoint – was 33 nM against NLRP3 [1] and 58 nM against NLRP3 [2].

For the molecule `Cc1nc(N[C@@H]2CCCN(CC3(O)CC3)C2)nnc1-c1ccc2c(c1O)CCO2` [Example 4, 5-[3-[[(3R)-1-[(1-Hydroxycyclopropyl)methyl]-3-piperidyl]amino]-5-methyl-1,2,4-triazin-6-yl]-2,3-dihydrobenzofuran-4-ol], the IC50 on NLRP3 [1] was 33 nM; against NLRP3 [2] it was 17 nM.

Regarding `COCCN1CCC[C@@H](Nc2nnc(-c3ccc4c(c3O)CCO4)c(C)n2)C1` [Example 5, 5-[3-[[(3R)-1-(2-Methoxyethyl)-3-piperidyl]amino]-5-methyl-1,2,4-triazin-6-yl]-2,3-dihydrobenzofuran-4-ol; formic acid salt], the IC50 against NLRP3 [1] amounted to 15 nM; against NLRP3 [2], 19 nM.

Turning to `CCN1C[C@@H](O)C[C@@H](Nc2nnc(-c3ccc4c(c3O)CCO4)c(C)n2)C1` [Example 6, (3S,5R)-1-Ethyl-5-[[6-(4-hydroxy-2,3-dihydrobenzofuran-5-yl)-5-methyl-1,2,4-triazin-3-yl]amino]piperidin-3-ol], the 50% inhibitory concentration (IC50) on NLRP3 [1] is 23 nM; at NLRP3 [2], 28 nM.

For the molecule `COC(C)CN1CCC[C@@H](Nc2nnc(-c3ccc4c(c3O)CCO4)c(C)n2)C1` (stereo partly drawn) [Example 7, 5-[5-Methyl-3-[[(3R)-1-(2-methoxypropyl)-3-piperidyl]amino]-1,2,4-triazin-6-yl]-2,3-dihydrobenzofuran-4-ol], the IC50 against NLRP3 [1] worked out at 40 nM; against NLRP3 [2], 62 nM.

As to `Cc1nc(N[C@@H]2CCCN(C3COC3)C2)nnc1-c1ccc2c(c1O)CCO2` [Example 8, 5-[5-Methyl-3-[[(3R)-1-(oxetan-3-yl)-3-piperidyl]amino]-1,2,4-triazin-6-yl]-2,3-dihydrobenzofuran-4-ol], the IC50 against NLRP3 [2] was 120 nM.

Consider `CNC(=O)CCCN1CCC[C@@H](Nc2nnc(-c3ccc4c(c3O)CCO4)c(C)n2)C1` [Example 10, 4-[(3R)-3-[[6-(4-hydroxy-2,3-dihydrobenzofuran-5-yl)-5-methyl-1,2,4-triazin-3-yl]amino]-1-piperidyl]-N-methyl-butanamide], for which, in data set [3], the 20% effect concentration (IC20) (usually the concentration needed for an effect of 20%) was 2900 nM. For the same molecule, the efflux ratio on human P-gp (read-out: ER (efflux ratio)) is 8.5. For the same molecule, on human P-gp (read-out: Permeability), the Papp is 12.2 ×10⁻⁶ cm/s. The half-maximal inhibitory concentration (IC50) worked out at 40 nM on NLRP3 [1] and 27 nM against NLRP3 [2].

`Cc1nc(N[C@@H]2CCCN(CCCC(=O)N(C)C)C2)nnc1-c1ccc2c(c1O)CCO2` [Example 12, 4-[(3R)-3-[[6-(4-Hydroxy-2,3-dihydrobenzofuran-5-yl)-5-methyl-1,2,4-triazin-3-yl]amino]-1-piperidyl]-N,N-dimethyl-butanamide]: the IC50 against NLRP3 [1] was found to be 30 nM; against NLRP3 [2], 53 nM.

In turn, `Cc1nc(N[C@@H]2CCCN(CCCC(=O)N(C)CCO)C2)nnc1-c1ccc2c(c1O)CCO2` [Example 14] showed a 50% inhibitory concentration (IC50) on NLRP3 [2] of 76 nM.

On to `Cc1nc(N[C@@H]2CCCN(CCCC(=O)N3CCOCC3)C2)nnc1-c1ccc2c(c1O)CCO2` [Example 16, 4-[(3R)-3-[[6-(4-Hydroxy-2,3-dihydrobenzofuran-5-yl)-5-methyl-1,2,4-triazin-3-yl]amino]-1-piperidyl]-1-morpholino-butan-1-one], for which the IC50 stood at 46 nM against NLRP3 [1] and 40 nM against NLRP3 [2].

In the case of `Cc1nc(N[C@@H]2CCCN(CCn3cccn3)C2)nnc1-c1ccc2c(c1O)CCO2` [Example 17, 5-[5-Methyl-3-[[(3R)-1-(2-pyrazol-1-ylethyl)-3-piperidyl]amino]-1,2,4-triazin-6-yl]-2,3-dihydrobenzofuran-4-ol], the half-maximal inhibitory concentration (IC50) against NLRP3 [1] amounted to 76 nM; at NLRP3 [2], 35 nM.

For `Cc1nc(N[C@@H]2CCCN(CCCc3nnn[nH]3)C2)nnc1-c1ccc2c(c1O)CCO2` [Example 18, 5-[5-Methyl-3-[[(3R)-1-[3-(1H-tetrazol-5-yl)propyl]-3-piperidyl]amino]-1,2,4-triazin-6-yl]-2,3-dihydrobenzofuran-4-ol; formic acid], the IC50 against NLRP3 [1] and against NLRP3 [2] was 23 nM each time.

Take `Cc1nc(N[C@@H]2CCCN(CCCC#N)C2)nnc1-c1ccc2c(c1O)CCO2` [Example 19, 4-[(3R)-3-[[6-(4-Hydroxy-2,3-dihydrobenzofuran-5-yl)-5-methyl-1,2,4-triazin-3-yl]amino]-1-piperidyl]butanenitrile]: the IC50 at NLRP3 [1] came out at 26 nM; at NLRP3 [2], 20 nM.

Take `Cc1nc(N[C@@H]2CCCN(CCCc3ncco3)C2)nnc1-c1ccc2c(c1O)CCO2` [Example 20, 5-[5-Methyl-3-[[(3R)-1-(3-oxazol-2-ylpropyl)-3-piperidyl]amino]-1,2,4-triazin-6-yl]-2,3-dihydrobenzofuran-4-ol]: the concentration for half-maximal inhibition (IC50) came out at 18 nM against NLRP3 [1] and 16 nM on NLRP3 [2].

Take `Cc1nc(N[C@@H]2CCCN(CCc3nnn[nH]3)C2)nnc1-c1ccc2c(c1O)CCO2` [Example 21, 5-[5-Methyl-3-[[(3R)-1-[2-(1H-tetrazol-5-yl)ethyl]-3-piperidyl]amino]-1,2,4-triazin-6-yl]-2,3-dihydrobenzofuran-4-ol]: the IC50 turned out to be 166 nM against NLRP3 [1] and 20 nM against NLRP3 [2].

`Cc1nc(N[C@@H]2CCCN(CCCS(C)(=O)=O)C2)nnc1-c1ccc2c(c1O)CCO2` [Example 22, 5-[5-Methyl-3-[[(3R)-1-(3-methylsulfonylpropyl)-3-piperidyl]amino]-1,2,4-triazin-6-yl]-2,3-dihydrobenzofuran-4-ol]: the IC50 on NLRP3 [1] worked out at 54 nM; on NLRP3 [2], 58 nM.
